In assay [1] the test system is LP-1 multiple myeloma cells. As to the kind of experiment: CCK-8 cytotoxicity. The assay is classed as cell-based. To be noted: LP-1 cells. The method, then: The in vitro anti-tumor activity of Dar-Ps-VCR against LP-1 multiple myeloma cells was determined using a CCK-8 kit, with MV4-11 cells as a control. LP-1 cells were first spread in 96-well plates (15,000/well) and placed in an incubator at 37° C. with 5% CO2 for 24 h. After that, 20 μL of Dar-Ps-VCR, Ps-VCR and free VCR containing different Dar surface densities were added to each well, and the final concentrations of VCR in the wells were 0.001, 0.01, 0.05, 0.1, 0.5, 1 and 10 ng/mL. After incubation at 37° C. for 48 h, 10 μL of CCK-8 solution was added to each well to continue the incubation for 4 h. Finally, its absorbance value at 492 nm was tested by an enzyme marker. Cell viability was calculated by the ratio of the absorbance value of the experimental group to the absorbance value of the cells incubated with the addition of PBS, and the experiment was performed in parallel for four groups (mean±SD, […]).

Assay [2] deals with LP-1 cells. In words: AnnexinV-FITC/PI apoptosis by flow cytometry. The assay is classed as cell-based. The conditions noted are these: VCR 0.5 ng/mL, 48 h. (Flow cytometry measures light scatter and fluorescence of single cells or particles in a stream.)
Protocol: LP-1 cells were first spread in 6-well plates at a density of 2×10^5 cells/well and incubated in the incubator for 24 h. After 24 h, 200 μL of Dar-Ps-VCR, Ps-VCR, and free VCR were added (the in-well concentration of VCR was 0.5 ng/mL), and the cells with only PBS were used as a control. After incubation in the incubator for 48 h, LP-1 cells were collected by centrifugation (800 rpm, 5 min) and washed twice with ice PBS, and finally 200 μL of Binding buffer was added to each sample to resuspend the cells (the cell density was approximately 10^6 cells/mL). After blowing uniformly, 100 μL was taken into the flow tube and 5 μL of AnnexinV-FITC and 10 μL of PI solution were added sequentially, and the cells were stained at room temperature and protected from light for 15 min, then 400 μL of PBS was added and mixed uniformly, and measured by flow cytometry within 1 h. The cells were then stained with PBS for 15 min at room temperature and protected from light for 15 min. Among them, the samples in the PBS group that were treated in a 50° C. water bath for 5 min and fixed with 4% paraformaldehyde for 5 min were used as the early apoptosis group and the late apoptosis group, respectively, and stained for 15 min by adding 5 μL of AnnexinV-FITC solution and 10 μL of PI solution, respectively.
Assay [3] has as its system LP-1-Luc multiple myeloma mice. In words: Anti-tumor effect in orthotopic LP-1-Luc multiple myeloma mice. The assay is classed as in vivo. The method, then: Mice were simultaneously weighed.
To investigate the anti-tumor effect of Dar-Ps-VCR in […] LP-1-Luc multiple myeloma mice, treatment experiments were initiated when the bioluminescence intensity reached 1.2×10^6 p/sec/cm^2/sr on day 10 post-inoculation. There were two dosing regimens that maintained the same total VCR administration: one with a VCR dose of 0.25 mg/kg, one injection given on 4 days for a total of 4 injections, denoted as Dar-Ps-VCR (0.25 mg VCR equiv./kg, Q4d); and the other with a VCR dose of 0.50 mg/kg, one injection given on 8 days for a total of 2 injections, denoted as Dar-Ps-VCR (0.50 mg VCR equiv./kg, Q8d). Based on the first dosing regimen, equal VCR doses of Ps-VCR and free VCR, equal equivalents of Dar-Ps, and PBS were used as controls. Each treatment group consisted of 10 […] mice, of which 4 were used for bioluminescence imaging and 6 were used to monitor body weight and observe survival. […] At the end of drug administration, the tumors of mice in the non-targeted Ps-VCR and free VCR groups began to recur, and Luc bioluminescence signals increased rapidly, i.e., 157- and 53-fold by day 39, respectively.

This is an account of results in patent publication US12478586B2, “Small molecular drug-loaded polymer vesicle, preparation method therefor and use thereof” (SOOCHOW UNIVERSITY, priority 2020, dated 2025).

Counter-ions that a name gives are not always drawn.

In turn, “free Dar: CD38-targeting monoclonal antibody daratumumab (Dar)” came in with a cell survival in assay [1] (Dar concentration 9 μg/mL) of approximately 100%.
Molecule `CC[C@]1(O)C[C@H]2CN(CCc3c([nH]c4ccccc34)[C@@](C(=O)OC)(c3cc4c(cc3OC)N(C=O)[C@H]3[C@@](O)(C(=O)OC)[C@H](OC(C)=O)[C@]5(CC)C=CCN6CC[C@]43[C@@H]65)C2)C1` [free VCR, vincristine sulfate] displayed an apoptosis in assay [2] of 31.4%. Also, the IC50 in assay [1] (Homo sapiens, 48 h, VCR concentration, read-out: LC50 (IC50)) was determined as 1.38 ng/mL. For the same molecule, the median survival in assay [3] (0.25 mg VCR equiv./kg, Q4d (Dar-Ps: equal equivalents)) was 52 days. The “increase of Luc bioluminescence signal” value in assay [3] (by day 39, 0.25 mg VCR equiv./kg, Q4d) is 53 fold. The “Luc signal during the administration treatment period” value in assay [3] (days 10-22) is listed as “no significant increase or even a slight decrease in Luc signal”.

The IC50 is the concentration needed to halve the response being measured.
